# Results as given in a compilation of properties of binary mixtures (doi:10.1007/s10953-011-9788-x).
# Assay: xn = mol fraction of the nth substance listed
# Conditions: 101 kPa
smiles,measurement,setting,value
CCCC[n+]1ccn(C)c1.N[C@@H](CCC(=O)O)C(=O)[O-] + CO,viscosity,"298.15 K, x2 = 0.1087",59.8 mPa·s
same,viscosity,"298.15 K, x2 = 0.4003",24.6 mPa·s
same,viscosity,"298.15 K, x2 = 0.4998",16.4 mPa·s
same,viscosity,"298.15 K, x2 = 0.6002",9.69 mPa·s
same,viscosity,"298.15 K, x2 = 0.8001",2.31 mPa·s
same,viscosity,"303.15 K, x2 = 0.1087",49.9 mPa·s
same,viscosity,"303.15 K, x2 = 0.2002",39.6 mPa·s
same,viscosity,"303.15 K, x2 = 0.2995",30.3 mPa·s
same,viscosity,"303.15 K, x2 = 0.4003",22.2 mPa·s
same,viscosity,"303.15 K, x2 = 0.4998",15.3 mPa·s
same,viscosity,"303.15 K, x2 = 0.7",5.48 mPa·s
same,viscosity,"303.15 K, x2 = 0.8001",2.82 mPa·s
same,viscosity,"303.15 K, x2 = 0.9",1.48 mPa·s
same,viscosity,"308.15 K, x2 = 0.1087",39.1 mPa·s
same,viscosity,"308.15 K, x2 = 0.2002",31.2 mPa·s
same,viscosity,"308.15 K, x2 = 0.2995",24.1 mPa·s
same,viscosity,"308.15 K, x2 = 0.4003",18.1 mPa·s
same,viscosity,"308.15 K, x2 = 0.4998",12.9 mPa·s
same,viscosity,"308.15 K, x2 = 0.7",5.2 mPa·s
same,viscosity,"308.15 K, x2 = 0.9",1.33 mPa·s
same,viscosity,"313.15 K, x2 = 0.1087",31.6 mPa·s
same,viscosity,"313.15 K, x2 = 0.2995",20 mPa·s
same,viscosity,"313.15 K, x2 = 0.4003",15 mPa·s
same,viscosity,"313.15 K, x2 = 0.4998",10.8 mPa·s
same,viscosity,"313.15 K, x2 = 0.6002",7.3 mPa·s
same,viscosity,"313.15 K, x2 = 0.8001",2.54 mPa·s
same,viscosity,"313.15 K, x2 = 0.9",1.24 mPa·s
